46 substances from US10517889B2, “Modulators of SMAD7 expression” (Ionis Pharmaceuticals, Inc., priority 2017, dated 2019) can be followed below.

Strand notation (5' to 3'): a small letter for the sugar, then the base; units joined by * are phosphorothioate-linked, units joined directly phosphodiester-linked; [ ] holds rarer units or linkages, { } end groups; capitals alone tell only the bases. k = constrained ethyl (cEt); [5mC] = 5-methylcytosine; d = 2'-deoxy (DNA)

The term % Inhibition denotes the share of the control response that was lost under treatment.

The series concerns human SMAD7 mRNA. As to the kind of experiment: Antisense inhibition of human SMAD7 mRNA expression in Hep3B cells by 3-10-3 cEt gapmers, 10,000 nM, electroporation (Example 2). It counts as cell-based. The settings on record: approximately 24 hours. An outline of the steps: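 Percent inhibition of SMAD7 mRNA, relative to untreated cells, after ~24 h exposure of electroporated Hep3B cells to 10,000 nM cEt gapmer; levels by qRT-PCR, corrected for total RNA.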

The mark [1] stands for this setting: Hep3B cells, 10,000 nM antisense oligonucleotide, electroporation, RT-PCR primer probe set RTS5062, relative to untreated control cells.
[2] abbreviates: Hep3B cells, electroporation with 10,000 nM antisense oligonucleotide, primer probe set RTS5062, relative to untreated control cells.
Setting [3] is: Hep3B cells, electroporation with 10,000 nM antisense oligonucleotide, SMAD7 mRNA by RT-PCR (RTS5062), relative to untreated control cells.
The mark [4] stands for this setting: Hep3B cells, electroporation, 10,000 nM antisense oligonucleotide, RTS5062, relative to untreated control cells.
[5] abbreviates: Hep3B cells, electroporation with 10,000 nM antisense oligonucleotide, RTS5062, percent inhibition of SMAD7 mRNA relative to untreated control cells.
[6] abbreviates: SMAD7 mRNA, Hep3B cells, 10,000 nM antisense oligonucleotide, electroporation, primer probe set RTS5062, relative to untreated control cells.

As for “798895 (kT*kG*kT*dA*dG*d[5mC]*dA*d[5mC]*dT*dG*dG*d[5mC]*d[5mC]*k[5mC]*k[5mC]*kA; antisense) [compound 798895]”, the “% Inhibition” value under setting [1] is listed as 53%. In the case of “798724 (antisense k[5mC]*kA*k[5mC]*d[5mC]*dG*d[5mC]*d[5mC]*dT*dT*dG*d[5mC]*d[5mC]*d[5mC]*kA*kG*kG) [compound 798724]”, the “% inhibition of SMAD7 mRNA expression” value under setting [2] is recorded as 19%. “800000 (k[5mC]*kA*kT*dT*dT*dA*dG*dG*dA*dA*d[5mC]*dA*dA*kG*kG*kG; antisense) [compound 800000]”: under setting [3], the “% Inhibition” value was 37%. The same measure, in the same setting: in the case of “830193 (antisense k[5mC]*kT*kT*dT*dT*d[5mC]*d[5mC]*dG*dG*dT*dA*dT*dT*kT*kT*k[5mC]) [compound 830193]” it was 35%. On to “799679 (antisense k[5mC]*kT*kG*d[5mC]*dA*dG*dG*dG*dT*dA*d[5mC]*dT*dA*kA*kG*kG) [compound 799679]”, for which, under setting [4], the “% inhibition of SMAD7 mRNA expression” value stood at 0%. Regarding “799590 (k[5mC]*kT*kG*d[5mC]*dA*dG*dT*d[5mC]*dT*dT*d[5mC]*dT*dG*kA*kA*kG; antisense) [compound 799590]”, under setting [5], the “% Inhibition” value amounted to 9%. With “830018 (antisense k[5mC]*k[5mC]*k[5mC]*dA*dA*d[5mC]*dA*dG*d[5mC]*d[5mC]*dA*dA*dA*kA*k[5mC]*kG) [compound 830018]”, under setting [3], the “% Inhibition” value amounted to 10%. Regarding “799947 (antisense kT*k[5mC]*kT*dA*dA*dA*dG*d[5mC]*d[5mC]*dA*d[5mC]*d[5mC]*dA*kA*kG*k[5mC]) [compound 799947]”, the “% Inhibition” value under setting [3] is recorded as 28%. With “799176 (antisense kT*kG*kT*dT*dA*dA*dA*dG*dT*d[5mC]*dT*dA*dA*kA*k[5mC]*kA) [compound 799176]”, the “% Inhibition” value under setting [2] was 0%. In the case of “798830 (kG*kA*kA*dG*dA*dT*dA*dT*d[5mC]*d[5mC]*dA*dG*dA*kG*kA*kG; antisense) [compound 798830]”, the “% Inhibition” value under setting [3] is listed as 17%. For “799728 (antisense k[5mC]*kG*kG*dA*dG*dA*dG*dG*dA*dA*dG*d[5mC]*d[5mC]*kT*k[5mC]*kT) [compound 799728]”, under setting [5], the “% Inhibition” value worked out at 37%. For the substance “799703 (antisense k[5mC]*k[5mC]*kA*dA*dT*dG*dG*d[5mC]*dA*dT*dT*dG*dA*kA*kT*kA) [compound 799703]”, the “% Inhibition” value under setting [5] stood at 45%.

For the substance “799584 (kT*kA*kT*d[5mC]*dA*dA*dG*dA*dA*dG*dA*d[5mC]*dA*kA*kA*k[5mC]; antisense) [compound 799584]”, the “% Inhibition” value under setting [5] worked out at 39%.

For “830176 (antisense kA*kT*kT*d[5mC]*dT*d[5mC]*dA*dA*d[5mC]*dA*dG*dA*d[5mC]*k[5mC]*kA*k[5mC]) [compound 830176]”, the “% Inhibition” value under setting [3] turned out to be 61%. Turning to “799172 (antisense kA*kA*k[5mC]*dA*dT*dG*d[5mC]*dT*d[5mC]*dA*dT*dT*dG*kA*kG*k[5mC]) [compound 799172]”, the “% inhibition of SMAD7 mRNA expression” value under setting [2] amounted to 4%. For the substance “799820 (antisense k[5mC]*k[5mC]*k[5mC]*d[5mC]*dA*dG*d[5mC]*dA*dG*dG*dG*dT*dT*kT*kT*kG) [compound 799820]”, under setting [4], the “% inhibition of SMAD7 mRNA expression” value was 0%.

In the case of “799162 (antisense kT*kA*kT*d[5mC]*dA*dT*dA*d[5mC]*dG*dA*dG*dT*dG*kT*kA*kT) [compound 799162]”, the “% Inhibition” value under setting [2] amounted to 36%.

As for “799598 (k[5mC]*kA*kA*d[5mC]*dT*d[5mC]*dT*dG*dA*dA*d[5mC]*dG*dG*kA*kA*kA; antisense) [compound 799598]”, the “% inhibition of SMAD7 mRNA expression” value under setting [4] came out at 39%. “829982 (k[5mC]*kG*kG*dT*dG*dA*dT*dT*dG*d[5mC]*d[5mC]*dT*dT*kG*kA*kT; antisense) [compound 829982]”: the “% Inhibition” value (SMAD7 mRNA, Hep3B cells, electroporation with 10,000 nM antisense oligonucleotide, primer probe set RTS5062, relative to untreated control cells) is on record as 44%. Turning to “799502 (antisense k[5mC]*kA*kA*dA*dT*dA*dG*dG*dA*dA*dA*dG*d[5mC]*k[5mC]*kA*kA) [compound 799502]”, the “% inhibition of SMAD7 mRNA expression” value under setting [4] is listed as 31%.

For “799533 (kG*kA*kA*dT*dG*dA*dA*dG*dT*d[5mC]*d[5mC]*dA*dG*kA*k[5mC]*k[5mC]; antisense) [compound 799533]”, the “% Inhibition” value under setting [5] amounted to 50%.

“798979 (antisense kG*kT*kG*dT*dT*dT*dG*dG*dT*dG*dG*dT*dG*k[5mC]*kT*kT) [compound 798979]”: the “% Inhibition” value under setting [2] was found to be 19%.

Consider “830061 (k[5mC]*kT*kA*d[5mC]*d[5mC]*dA*d[5mC]*d[5mC]*d[5mC]*d[5mC]*dT*dG*dT*kG*kA*kA; antisense) [compound 830061]”, for which the “% Inhibition” value under setting [3] was found to be 4%. For the substance “799283 (antisense kA*kA*kG*dA*d[5mC]*dA*dG*dA*d[5mC]*d[5mC]*dA*d[5mC]*dA*kG*k[5mC]*kA) [compound 799283]”, the “% inhibition of SMAD7 mRNA expression” value under setting [4] was determined as 34%. “800023 (kA*kG*kG*dA*dA*dG*dA*dG*d[5mC]*d[5mC]*dT*dT*dG*kG*k[5mC]*k[5mC]; antisense) [compound 800023]”: the “% Inhibition” value under setting [3] is recorded as 0%. “790652 (k[5mC]*kA*k[5mC]*d[5mC]*dA*dG*dT*dT*dG*dG*dT*dT*dT*kG*kA*kG; antisense) [compound 790652]”: the “% Inhibition” value under setting [6] was 25%. “798842 (k[5mC]*kA*kG*d[5mC]*dT*dG*dA*d[5mC]*dT*d[5mC]*dT*dT*dG*kT*kT*kG; antisense) [compound 798842]”: the “% Inhibition” value under setting [1] is 0%. In the case of “800062 (antisense k[5mC]*k[5mC]*k[5mC]*d[5mC]*dA*dA*dG*d[5mC]*dT*dG*dG*d[5mC]*d[5mC]*kT*kT*k[5mC]) [compound 800062]”, under setting [3], the “% Inhibition” value came out at 25%.

In the case of “772611 (kT*k[5mC]*k[5mC]*dG*dA*dG*dG*d[5mC]*dA*dA*dA*dA*dG*k[5mC]*k[5mC]*kA; antisense) [compound 772611]”, the “% Inhibition” value under setting [6] is 14%. “799284 (antisense k[5mC]*kG*kT*dA*dA*dG*dA*d[5mC]*dA*dG*dA*d[5mC]*d[5mC]*kA*k[5mC]*kA) [compound 799284]”: the “% inhibition of SMAD7 mRNA expression” value under setting [4] was 51%.

Take “799137 (antisense kA*kA*kT*d[5mC]*d[5mC]*dT*dT*d[5mC]*dT*dT*dG*dG*dA*kG*kG*kG) [compound 799137]”: the “% Inhibition” value under setting [2] is 49%.

In the case of “799039 (kT*kG*k[5mC]*dT*dG*dG*dG*dA*d[5mC]*d[5mC]*d[5mC]*d[5mC]*dA*kG*k[5mC]*k[5mC]; antisense) [compound 799039]”, under setting [2], the “% Inhibition” value is listed as 19%. Take “798754 (kA*kG*k[5mC]*d[5mC]*dT*dG*d[5mC]*dA*dG*dT*d[5mC]*d[5mC]*dA*kG*kG*k[5mC]; antisense) [compound 798754]”: the “% Inhibition” value under setting [3] came to 16%. In the case of “798966 (antisense kT*kA*k[5mC]*d[5mC]*dT*dG*d[5mC]*d[5mC]*d[5mC]*d[5mC]*dT*dT*d[5mC]*kT*kT*k[5mC]) [compound 798966]”, under setting [2], the “% inhibition of SMAD7 mRNA expression” value is 35%.

Regarding “798959 (antisense k[5mC]*k[5mC]*k[5mC]*dA*dA*d[5mC]*dA*dA*dT*dT*d[5mC]*dT*dT*kT*kT*k[5mC]) [compound 798959]”, under setting [2], the “% Inhibition” value is 36%.

On to “799233 (k[5mC]*kA*kT*dT*d[5mC]*dA*dG*d[5mC]*dT*dA*dG*dG*dT*kG*kA*kT; antisense) [compound 799233]”, for which the “% inhibition of SMAD7 mRNA expression” value under setting [2] was 28%. “829753 (antisense kT*k[5mC]*k[5mC]*d[5mC]*d[5mC]*dG*d[5mC]*dA*dG*d[5mC]*dT*d[5mC]*dG*k[5mC]*k[5mC]*kT) [compound 829753]”: the “% Inhibition” value under setting [6] was found to be 29%.

For the substance “830042 (antisense k[5mC]*kA*kG*dG*dT*dT*dA*dA*dT*d[5mC]*dA*d[5mC]*dT*kT*k[5mC]*k[5mC]) [compound 830042]”, the “% Inhibition” value under setting [3] is given as 64%. Consider “829729 (antisense kA*kG*kG*d[5mC]*dG*d[5mC]*dA*dG*dG*d[5mC]*dG*dA*d[5mC]*kA*kG*k[5mC]) [compound 829729]”, for which the “% Inhibition” value under setting [6] worked out at 66%. In the case of “800011 (k[5mC]*kT*kT*d[5mC]*dA*dG*d[5mC]*d[5mC]*dT*dG*dT*dG*dT*kT*kT*kG; antisense) [compound 800011]”, the “% Inhibition” value under setting [1] is 21%. “798707 (antisense kG*k[5mC]*kT*d[5mC]*dG*dG*d[5mC]*dT*dG*dT*d[5mC]*d[5mC]*dG*kT*k[5mC]*kG) [compound 798707]”: under setting [2], the “% inhibition of SMAD7 mRNA expression” value amounted to 74%. In the case of “799802 (k[5mC]*k[5mC]*kA*dG*dA*d[5mC]*dA*dG*dG*d[5mC]*d[5mC]*dA*dG*kG*kG*k[5mC]; antisense) [compound 799802]”, under setting [5], the “% Inhibition” value was 20%.

For “790537 (kA*kG*k[5mC]*dA*dG*d[5mC]*dA*dA*dA*dG*dT*dA*dG*kT*kT*kT; antisense) [compound 790537]”, the “% Inhibition” value under setting [6] stood at 27%. For the substance “799643 (kG*kT*kG*dA*dT*d[5mC]*d[5mC]*d[5mC]*d[5mC]*dG*dG*dA*dA*kA*kG*k[5mC]; antisense) [compound 799643]”, the “% Inhibition” value under setting [5] is reported as 26%. As to “799212 (kT*kT*kA*dT*dA*d[5mC]*dA*d[5mC]*dA*dT*dT*dG*d[5mC]*kA*k[5mC]*kA; antisense) [compound 799212]”, the “% Inhibition” value under setting [2] is on record as 35%. For “799459 (antisense kA*k[5mC]*kA*dG*dA*dG*dT*d[5mC]*dT*dT*dT*dG*dA*kA*kA*kA) [compound 799459]”, the “% inhibition of SMAD7 mRNA expression” value under setting [2] was 0%.
